US20250011456A1, “ANTIBODIES AGAINST CD14 AND USES THEREOF” (Villanelle Life Science Inc, priority 2023, published 2025)
Several values for one entry are separate records, joined by “and”; a condition that tells them apart may be missing. Equal entries are not always repeated.

What was measured:
[1] = test system: CD14 positive recurrent bladder cancer patient-derived xenograft (PDX); experiment: Anti-CD14 IgG1/IgG4 with or without cisplatin, tumor treatment in PDX mice (tumor length, width, volume, tumor weight; Example 6); type: in vivo; conditions: for Tumor Length / Tumor Volume / Tumor Width: Cisplatin 4 mg/kg i.v. (C. Ex. 2), PDX mice 1-6
Excerpt: After removing the primary tumor tissue from the patient, the tissue was temporarily placed in a complete culture medium containing RPMI1640 (Gibco Roswell Park Memorial Institute 1640 Media)+PS (penicillin and streptomycin)+10% FBS (Fetal bovine serum). The tissue was then transported to a sterile operating room within an SPF-grade (Specific Pathogen Free) animal facility. The tumor tissue was cut to an appropriate size (5 millimeters (mm) in diameter). Severely immunodeficient NSG (NOD scid gamma mouse) mice were anesthetized using an isoflurane respirator. The tumor was transplanted subcutaneously into the right rib area through surgery. When the tumor volume reached 1 cm^3, it was passaged following the same procedure, and after expanding for three generations, the tumor became stable for use in formal experiments. During the experiment, passaging and expansion were performed as needed. When the tumor volume reached 100 mm^3, the mice were divided into groups according to the experimental requirements and treated with drugs.
The IgG4 tested is the original version of Atibuclimab.
Drug administration on the PDX mice was performed intravenously.

[2] = Mouse weight under the treatment regimens of Example 6 (PDX mice); conditions: Cisplatin 4 mg/kg i.v. (C. Ex. 2), PDX mice 1-6
Method: For these experiments, eight (8) treatment groups for PDX mice were set up: control IgG group (C.Ex. 1), single cisplatin group (4 mg/kg; C.Ex. 2), single anti-CD14-IgG1 group (5 mg/kg; Ex. 1), single anti-CD14-IgG4 (5 mg/kg; Ex. 2), combined cisplatin and anti-CD14-IgG1 group (4 mg/kg+1.5 mg/kg; Ex. 3), combined cisplatin and anti-CD14-IgG4 group (4 mg/kg+1.5 mg/kg; Ex. 4), combined cisplatin and anti-CD14-IgG1 group (4 mg/kg+5 mg/kg; Ex. 5), and combined cisplatin and anti-CD14-IgG4 group (4 mg/kg+5 mg/kg; Ex. 6). […] When cisplatin was used in these experiments, the cisplatin was used at a dose of 4 mg/kg. “C.Ex.” refers to comparative examples and “Ex.” refers to examples of embodiments of the present disclosure. The control is a non-specific IgG1 having two identical heavy chains and two identical light chains. The non-specific IgG1 has no binding affinity to the antigen.
Drug administration on the PDX mice was performed intravenously. Drug administration was performed on days 0, 4, 7, 11, 14, 18, 21, 25, and 28. Measurements of length, width, volume, and weight were performed prior to the drug administration on day 0, 4, 7, 11, 14, 18, 21, 25, and 28. The tumors were present on the skin of the mice. A ruler was used to measure the length and the width. The tumor volume was calculated by volume=½(length×width^2). The weight of the mouse was measured by placing the mouse on a scale and weighing. Tumor weight was measured by removing the tumor from the mouse and weighing on a scale.

With N.N.[Cl][Pt][Cl] [Cisplatin, cisplatin, reference compound] as the compound, how does the “Tumor Length” value ([1]; Day 0) read?
Its value is 6.73 mm and 6.19 mm and 6.27 mm and 6.28 mm and 7.76 mm and 7.8 mm.

What about the “Tumor Volume” value ([1]; Day 0) of the same compound?
Its value is 60.66 mm^3 and 92.72 mm^3 and 86.02 mm^3 and 73.84 mm^3 and 94.74 mm^3 and 109.53 mm^3.

What about the “Tumor Width” value ([1]; Day 0) of the same compound?
The value was 4.15 mm and 5.35 mm and 5.12 mm and 4.74 mm and 4.83 mm and 5.18 mm.

And the “Tumor Length” value ([1]; Day 4)?
The value was 6.66 mm and 6.27 mm and 5.94 mm and 5.93 mm and 6.62 mm and 5.98 mm.

And the “Tumor Volume” value ([1]; Day 4)?
The value was 87.83 mm^3 and 103.64 mm^3 and 106.38 mm^3 and 105.48 mm^3 and 165.90 mm^3 and 96.75 mm^3.

And the “Tumor Width” value ([1]; Day 4)?
Its value is 5.02 mm and 5.62 mm and 5.85 mm and 5.83 mm and 6.92 mm and 5.56 mm.

What about the “Tumor Length” value ([1]; Day 7) of the same compound?
Its value is 6.33 mm and 6.99 mm and 6.68 mm and 7.3 mm and 7.66 mm and 7.34 mm.

What about the “Tumor Volume” value ([1]; Day 7) of the same compound?
Its value is 97.32 mm^3 and 111.46 mm^3 and 139.19 mm^3 and 144.96 mm^3 and 184.82 mm^3 and 147.18 mm^3.

And the “Tumor Width” value ([1]; Day 7)?
Its value is 5.42 mm and 5.52 mm and 6.31 mm and 6.16 mm and 6.79 mm and 6.19 mm.

And the “Tumor Length” value ([1]; Day 11)?
Its value is 8.7 mm and 6.68 mm and 7.84 mm and 8.41 mm and 7.57 mm and 7.94 mm.

What about the “Tumor Width” value ([1]; Day 11) of the same compound?
The value was 6.55 mm and 6.18 mm and 6.08 mm and 7.57 mm and 7.19 mm and 5.43 mm.

And the “Tumor Length” value ([1]; Day 14)?
Its value is 7.16 mm and 8.08 mm and 7.68 mm and 8.19 mm and 9.8 mm and 9.87 mm.

And the “Tumor Volume” value ([1]; Day 14)?
Its value is 191.56 mm^3 and 209.57 mm^3 and 206.05 mm^3 and 280.52 mm^3 and 299.36 mm^3 and 256.73 mm^3.

What about the “Tumor Width” value ([1]; Day 14) of the same compound?
Its value is 7.15 mm and 7.04 mm and 7.16 mm and 8.09 mm and 7.64 mm and 7.05 mm.

And the “Tumor Length” value ([1]; Day 18)?
Its value is 9.5 mm and 10.13 mm and 8.93 mm and 9.14 mm and 8.11 mm and 9.96 mm.

What about the “Tumor Volume” value ([1]; Day 18) of the same compound?
The value was 359.20 mm^3 and 359.95 mm^3 and 306.62 mm^3 and 367.06 mm^3 and 235.57 mm^3 and 353.91 mm^3.

And the “Tumor Width” value ([1]; Day 18)?
Its value is 8.5 mm and 8.24 mm and 8.1 mm and 8.76 mm and 7.45 mm.

What about the “Tumor Length” value ([1]; Day 21) of the same compound?
Its value is 9.64 mm and 9.79 mm and 9.77 mm and 10.69 mm and 9.27 mm and 9.57 mm.

What about the “Tumor Volume” value ([1]; Day 21) of the same compound?
The value was 461.07 mm^3 and 334.49 mm^3 and 398.65 mm^3 and 549.42 mm^3 and 378.25 mm^3 and 399.39 mm^3.

And the “Tumor Width” value ([1]; Day 21)?
The value was 9.56 mm and 8.08 mm and 8.83 mm and 9.91 mm and 8.93 mm.

And the “Tumor Length” value ([1]; Day 25)?
The value was 10.14 mm and 11.63 mm and 10.89 mm and 10.35 mm and 10.8 mm and 9.29 mm.

What about the “Tumor Volume” value ([1]; Day 25) of the same compound?
The value was 447.20 mm^3 and 648.21 mm^3 and 545.11 mm^3 and 447.56 mm^3 and 545.04 mm^3 and 354.58 mm^3.

What about the “Tumor Width” value ([1]; Day 25) of the same compound?
The value was 9.18 mm and 10.32 mm and 9.78 mm and 9.09 mm and 9.82 mm and 8.54 mm.

What about the “Tumor Length” value ([1]; Day 28) of the same compound?
The value was 10.94 mm and 11.95 mm and 11.36 mm and 9.95 mm and 11.27 mm and 11.26 mm.

And the “Tumor Volume” value ([1]; Day 28)?
Its value is 472.03 mm^3 and 644.29 mm^3 and 617.31 mm^3 and 399.59 mm^3 and 624.50 mm^3 and 680.98 mm^3.

What about the “Tumor Width” value ([1]; Day 28) of the same compound?
The value was 9.08 mm and 10.15 mm and 10.19 mm and 8.76 mm and 10.29 mm and 10.75 mm.

And the “Tumor weight after 28 days” value ([1]; Cisplatin (4 mg/kg), C. Ex. 2, per mouse 1-6)?
Its value is 0.556 grams and 0.459 grams and 0.538 grams and 0.669 grams and 0.566 grams and 0.419 grams.

And the tumor suppression rate ([1]; single cisplatin 4 mg/kg (C.Ex. 2), after 28 days, compared to the control group)?
Its tumor suppression rate is “about 50%”.

What about the “Mouse Weight” value ([2]; Day 0) of the same compound?
The value was 20.24 g and 20.99 g and 19.91 g and 20.78 g and 20.29 g and 20.61 g.

What about the “Mouse Weight” value ([2]; Day 4) of the same compound?
The value was 20.91 g and 20.32 g and 20.42 g and 20.81 g and 20.93 g and 19.35 g.

And the “Mouse Weight” value ([2]; Day 7)?
The value was 19.77 g and 20.8 g and 21.42 g and 19.96 g and 20.93 g and 20.38 g.

What about the “Mouse Weight” value ([2]; Day 11) of the same compound?
Its value is 21.17 g and 21.76 g and 20.58 g and 20.08 g and 21.59 g and 19.94 g.

What about the “Mouse Weight” value ([2]; Day 14) of the same compound?
Its value is 21.09 g and 21.3 g and 21.38 g and 21.68 g and 20.56 g and 22.59 g.

And the “Mouse Weight” value ([2]; Day 18)?
Its value is 21.17 g and 21.02 g and 21.25 g and 21.23 g and 21.03 g and 21.58 g.

And the “Mouse Weight” value ([2]; Day 21)?
The value was 22.54 g and 22.44 g and 22.47 g and 22.85 g and 22.23 g and 22.65 g.

And the “Mouse Weight” value ([2]; Day 25)?
Its value is 25.05 g and 24.06 g and 22.26 g and 23.7 g and 25.49 g and 22.66 g.

And the “Mouse Weight” value ([2]; Day 28)?
Its value is 24.11 g and 25.57 g and 24.32 g and 23.69 g and 24.47 g and 25.73 g.
